For seven compounds, IC50 and Ratio ant/agonist results are on record in patent EP0923548B1, “4-A[…] AS DOPAMIN D2 AGONISTS AND AS 5HT 1A LIGANDS” (Wyeth, priority 1996, dated 1998).

The structures appear in SMILES notation.

The assay has as its target T1, dopamine autoreceptor (Rattus norvegicus, UniProt P61169).
T1 construct: homogenized rat striatal brain tissue; from tissue; host or cells: rat striatal brain tissue homogenate
The assay is described as follows: Dopamine autoreceptor affinity, 3H-quinpirole binding in homogenized rat striatal brain tissue. Conditions: for Ratio ant/agonist: ratio of D2 Spiper IC50 to D2 Quin. IC50 (LowAg/HighAg, predicts intrinsic activity). How it is done: Affinity for the dopamine autoreceptor was established by a modification of the standard experimental test procedure of Seemen and Schaus, European Journal of Pharmacology 203, 105-109 (1991), wherein homogenized rat striatal brain tissue is incubated with ^3H-quinpirole (Quin.)and various concentrations of test compound, filtered and washed and counted in a Betaplate scintillation counter.

T1 sequence (P61169 whole entry): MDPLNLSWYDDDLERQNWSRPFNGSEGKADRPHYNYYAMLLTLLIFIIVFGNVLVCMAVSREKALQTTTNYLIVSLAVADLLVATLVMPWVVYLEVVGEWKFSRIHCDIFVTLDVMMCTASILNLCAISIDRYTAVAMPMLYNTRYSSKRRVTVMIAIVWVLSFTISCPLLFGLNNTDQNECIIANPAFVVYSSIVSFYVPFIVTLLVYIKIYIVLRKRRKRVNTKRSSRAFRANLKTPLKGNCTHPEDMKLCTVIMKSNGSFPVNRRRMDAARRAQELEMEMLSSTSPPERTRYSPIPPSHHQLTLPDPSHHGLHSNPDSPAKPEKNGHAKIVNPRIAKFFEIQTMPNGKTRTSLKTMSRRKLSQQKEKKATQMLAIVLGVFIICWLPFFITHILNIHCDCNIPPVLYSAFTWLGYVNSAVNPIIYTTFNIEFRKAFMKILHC

Usually IC50 stands for the concentration needed to halve the response being measured. A high value points to lower potency. On to `O=C(c1c[nH]c2cccc(OCCNCc3ccccc3)c12)C(F)(F)F` [(3a), 1-[4-(2-Benzylamino-ethoxy)-1H-indol-3-yl]-2,2,2-trifluoro-ethanone], for which the 50% inhibitory concentration (IC50) worked out at 5.93 nM and the Ratio ant/agonist is given as 48.
For `Clc1c[nH]c2cccc(OCCNCCCCc3ccccc3)c12` [(2a), [2-(3-Chloro-1H-indol-4-yloxy)-ethyl]-(4-phenyl-butyl)-amine], in that order: 9.55 nM and 20.
Regarding `c1ccc(CCCCNCCOc2cccc3[nH]ccc23)cc1` [(1a), [2-(1H-Indol-4-yloxy)-ethyl]-(4-phenyl-butyl)-amine], the IC50 is 10.5 nM and the Ratio ant/agonist is recorded as 18.
For `Clc1ccc(OCCNCc2ccccc2)c2cc[nH]c12` [(1b), Benzyl-[2-(7-chloro-1H-indol-4-yloxy)-ethyl]-amine], in that order: 14.9 nM and 12.
`Clc1ccc(OCCNCc2cccs2)c2c(Cl)c[nH]c12` [(1f), Thien-2-ylmethyl-[2-(3,7-dichloro-1H-indol-4-yloxy)-ethyl]-amine]: the 50% inhibitory concentration (IC50) was 22.5 nM and the Ratio ant/agonist is listed as 18.
The corresponding values for `c1ccc(CNCCOc2cccc3[nH]ccc23)cc1` [(3b), N-Benzyl-[2-(1H-indol-4-yloxy)]-ethylamine] are 19.4 nM and 26.
As to `Clc1ccc(OCCNCc2ccccc2)c2c(Cl)c[nH]c12` [(1c), Benzyl-[2-(3,7-dichloro-1H-indol-4-yloxy)-ethyl]-amine], the half-inhibitory concentration (IC50) was determined as 13.6 nM and the Ratio ant/agonist is recorded as 21.
